Results taken from US20260199438A1, “METHOD AND TREATMENT FOR DIABETES IN DOGS” (THE ROYAL VETERINARY COLLEGE, priority 2022, published 2026).
Where two headings read alike, the source gives them in different places.

Legend:
[1] = target: T1, wild-type (WT) KATP channels (Kir6.2/SUR1) (Homo sapiens, UniProt Q09428+Q14654)
[2] = target: T1, wild-type (WT) KATP channels (Kir6.2/SUR1); assay: Two-electrode voltage-clamp whole-cell currents in Xenopus oocytes, wild-type channel; format: cell-based

T1 sequence (Q14654 whole entry): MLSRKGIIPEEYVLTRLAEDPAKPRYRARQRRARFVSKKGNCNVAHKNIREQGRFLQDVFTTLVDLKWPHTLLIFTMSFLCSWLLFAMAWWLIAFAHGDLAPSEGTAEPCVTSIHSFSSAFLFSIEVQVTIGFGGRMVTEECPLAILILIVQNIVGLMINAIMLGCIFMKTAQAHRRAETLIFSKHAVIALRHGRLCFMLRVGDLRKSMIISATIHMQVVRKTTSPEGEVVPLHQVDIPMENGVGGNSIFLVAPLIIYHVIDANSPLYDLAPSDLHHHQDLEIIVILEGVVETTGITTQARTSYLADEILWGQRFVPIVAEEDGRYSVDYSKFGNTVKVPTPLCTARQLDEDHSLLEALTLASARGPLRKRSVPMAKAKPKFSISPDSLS
T1 sequence (Q09428 whole entry): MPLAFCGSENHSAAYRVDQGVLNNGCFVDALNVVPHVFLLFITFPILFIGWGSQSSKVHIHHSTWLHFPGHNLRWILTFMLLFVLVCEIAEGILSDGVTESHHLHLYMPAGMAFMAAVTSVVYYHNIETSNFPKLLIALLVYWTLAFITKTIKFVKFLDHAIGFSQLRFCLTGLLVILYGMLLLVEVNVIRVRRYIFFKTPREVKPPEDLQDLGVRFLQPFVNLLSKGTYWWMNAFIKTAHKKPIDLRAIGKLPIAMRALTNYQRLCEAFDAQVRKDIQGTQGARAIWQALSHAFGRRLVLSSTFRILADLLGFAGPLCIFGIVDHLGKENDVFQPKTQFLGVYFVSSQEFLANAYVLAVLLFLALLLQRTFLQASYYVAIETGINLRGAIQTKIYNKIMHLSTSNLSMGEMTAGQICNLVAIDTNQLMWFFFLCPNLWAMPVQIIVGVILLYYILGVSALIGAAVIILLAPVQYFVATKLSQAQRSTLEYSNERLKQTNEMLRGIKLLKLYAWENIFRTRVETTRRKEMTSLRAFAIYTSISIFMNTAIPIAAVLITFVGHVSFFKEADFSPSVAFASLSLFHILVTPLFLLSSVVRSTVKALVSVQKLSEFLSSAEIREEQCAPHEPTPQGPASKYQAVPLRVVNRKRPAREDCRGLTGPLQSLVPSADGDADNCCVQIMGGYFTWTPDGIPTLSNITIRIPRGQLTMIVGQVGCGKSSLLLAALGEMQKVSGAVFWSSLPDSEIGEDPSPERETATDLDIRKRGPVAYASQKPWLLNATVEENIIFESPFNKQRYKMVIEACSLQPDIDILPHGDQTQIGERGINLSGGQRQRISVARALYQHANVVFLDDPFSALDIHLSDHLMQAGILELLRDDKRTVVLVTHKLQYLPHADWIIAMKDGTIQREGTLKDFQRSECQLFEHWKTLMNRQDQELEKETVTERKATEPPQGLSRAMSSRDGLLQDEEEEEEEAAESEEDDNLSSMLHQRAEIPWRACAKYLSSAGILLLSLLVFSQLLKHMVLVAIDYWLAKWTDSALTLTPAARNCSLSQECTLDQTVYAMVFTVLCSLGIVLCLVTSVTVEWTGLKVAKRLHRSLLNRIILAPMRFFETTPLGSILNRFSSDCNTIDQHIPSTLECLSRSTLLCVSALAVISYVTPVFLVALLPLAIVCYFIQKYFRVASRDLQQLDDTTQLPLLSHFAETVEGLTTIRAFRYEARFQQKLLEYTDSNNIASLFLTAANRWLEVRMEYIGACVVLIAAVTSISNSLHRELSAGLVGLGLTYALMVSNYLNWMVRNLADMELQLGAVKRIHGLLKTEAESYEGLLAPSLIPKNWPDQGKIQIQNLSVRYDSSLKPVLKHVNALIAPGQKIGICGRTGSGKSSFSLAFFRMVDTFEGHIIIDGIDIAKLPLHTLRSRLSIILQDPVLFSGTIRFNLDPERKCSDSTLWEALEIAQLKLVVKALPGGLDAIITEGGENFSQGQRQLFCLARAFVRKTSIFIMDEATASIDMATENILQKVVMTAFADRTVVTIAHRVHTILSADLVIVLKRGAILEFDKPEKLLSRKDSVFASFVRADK

Nc1ncnc2c1ncn2[C@@H]1O[C@H](COP(=O)(O)OP(=O)(O)OP(=O)(O)O)[C@@H](O)[C@H]1O [ATP, adenosine triphosphate]
Hill coefficient h, fits to individual dose-response relationships (mean±SEM) ([1]; absence of Mg2+): 1.24±0.05 | Hill coefficient h, fit to the mean data ([1]; presence of Mg2+): 1.1 | Hill coefficient h, fits to individual dose-response relationships (mean±SEM) ([1]; presence of Mg2+): 1.12±0.04

[N-]=[N+]=[N-].[Na+] [Na-azide]
activation of whole-cell currents by the metabolic inhibitor ([2]; WT, 3 mM Na-azide): activated

CCCCNC(=O)NS(=O)(=O)c1ccc(C)cc1 [tolbutamide]
tolbutamide block, percentage block of the azide-induced current ([2]; WT channels, 0.5 mM tolbutamide after 3 mM Na-azide): > 95%
